Laboratory results taken from patent publication US11083729B2, “Methods of treating cancer with small molecule NF-κB inhibitors” (ImmuneTarget, Inc., priority 2017, dated 2021).
pIC50: −log10 of the molar value. Blank lines part the entries; values can stand above or below the molecule they belong to.

What was measured:
[1] = test system: PLC/PRF/5; assay: CellTiter-Glo IG50, Example 8, PLC/PRF/5; assay type: cell-based; settings: Homo sapiens, PLC/PRF/5, 72 hours
Description: (§1) Various pancreatic, liver, colon, breast, and stomach cancer cell lines were exposed to the NF-κB inhibitors of the present invention, including, for example, IT-839, IT-843, IT-848, and IT-878, and assessed for IG50 in the CellTiter Glo 2.0 assay.
(§2) The cells were cultured in an atmosphere of 37° C., 5% CO2 and 95% humidity. All culture media and FBS were purchased from GIBCO, Hyclone or Sigma, USA. The media used for cell culture is described in the table below.
(§3) The cells were harvested during the logarithmic growth period and counted. Cell concentrations were adjusted to the appropriate number in appropriate medium and 90 μl cell suspensions were added to 96-well plates. When cells were added, the plates were shaken gently to distribute the cells evenly. Cells were incubated at 37° C. and 5% CO2.
(§4) 3× serial dilutions of test compound stock solutions with respective solvents were prepared. The stock solutions were diluted with culture medium to generate 10× working solutions of the test compounds. 10 μl of the 10× test compound solutions were added to each well in triplicate for each concentration. Plates were incubated for 72 hours in a humidified incubator at 37° C. and 5% CO2.
(§5) CellTiter-Glo (CTG) solution was thawed and equilibrated to room temperature. 50 μl of CTG were added to each well and the contents were mixed for 2 minutes on a plate shaker. Cells were incubated for 10 minutes before luminescence signal was recorded using Envision.
(§6) Cell viability was plotted with GraphPad Prism version 5 and the IG50 was calculated for each cell line. The graphical curves were fitted using a nonlinear regression model with a sigmoidal dose response. IG50 is the concentration of test drug where 100×T/C=50 (the optical density of the test well after a 3-day period of exposure to test drug is T; the control optical density is C).

[2] = test system: HepG2; assay: CellTiter-Glo IG50, Example 8, HepG2; assay type: cell-based; settings: Homo sapiens, HepG2, 72 hours
Description: as §1, §2, §3, §4, §5, §6

[3] = test system: PLC/PRF/5; assay: CellTiter-Glo IG50, Example 9 HCC panel, PLC/PRF/5; assay type: cell-based; settings: Homo sapiens, PLC/PRF/5, 72 hours
Description: as §3, §4, §5, §6, §2
(§7) Following the cell culture protocol and data analysis methods described in Example 8, the following IG50 results (in μM) were observed: […]

[4] = test system: Hep3B; assay: CellTiter-Glo IG50, Example 8, Hep3B; assay type: cell-based; settings: Homo sapiens, 72 hours
Description: as §1, §2, §3, §4, §5, §6

[5] = test system: HUH7; assay: CellTiter-Glo IG50, Example 10 HCC panel, HUH7; assay type: cell-based; settings: Homo sapiens, Huh-7, HUH7, 72 hours
Description: as §3, §4, §5, §6, §2
(§8) Following the cell culture protocol and data analysis method described in Example 8, the following IG50 results (in μM) were observed: […]

[6] = test system: JHH5; assay: CellTiter-Glo IG50, Example 9 HCC panel, JHH5; assay type: cell-based; settings: JHH5, 72 hours
Description: as §3, §4, §5, §6, §2, §7

[7] = test system: HepG2; assay: CellTiter-Glo IG50, Example 10 HCC panel, HepG2; assay type: cell-based; settings: Homo sapiens, HepG2, 72 hours
Description: as §3, §4, §5, §6, §2, §8

[8] = test system: SNU878; assay: CellTiter-Glo IG50, Example 10 HCC panel, SNU878; assay type: cell-based; settings: SNU878, 72 hours
Description: as §3, §4, §5, §6, §2, §8

[9] = test system: HUH7; assay: CellTiter-Glo IG50, Example 9 HCC panel, HUH7; assay type: cell-based; settings: Homo sapiens, Huh-7, HUH7, 72 hours
Description: as §3, §4, §5, §6, §2, §7

[10] = test system: PBMC; assay: CellTiter-Glo IG50, Example 9 HCC panel, PBMC; assay type: cell-based; settings: 72 hours
Description: as §3, §4, §5, §6, §2, §7

[11] = test system: Hep3B; assay: CellTiter-Glo IG50, Example 10 HCC panel, Hep3B; assay type: cell-based; settings: Homo sapiens, 72 hours
Description: as §3, §4, §5, §6, §2, §8

[12] = test system: Hep3B; assay: CellTiter-Glo IG50, Example 9 HCC panel, Hep3B; assay type: cell-based; settings: Homo sapiens, 72 hours
Description: as §3, §4, §5, §6, §2, §7

[13] = test system: JHH5; assay: CellTiter-Glo IG50, Example 10 HCC panel, JHH5; assay type: cell-based; settings: JHH5, 72 hours
Description: as §3, §4, §5, §6, §2, §8

[14] = test system: PLC/PRF/5; assay: CellTiter-Glo IG50, Example 10 HCC panel, PLC/PRF/5; assay type: cell-based; settings: Homo sapiens, PLC/PRF/5, 72 hours
Description: as §3, §4, §5, §6, §2, §8

[15] = test system: HepG2; assay: CellTiter-Glo IG50, Example 9 HCC panel, HepG2; assay type: cell-based; settings: Homo sapiens, HepG2, 72 hours
Description: as §3, §4, §5, §6, §2, §7

[16] = test system: SNU878; assay: CellTiter-Glo IG50, Example 9 HCC panel, SNU878; assay type: cell-based; settings: SNU878, 72 hours
Description: as §3, §4, §5, §6, §2, §7

[17] = test system: PBMC; assay: CellTiter-Glo IG50, Example 10 HCC panel, PBMC; assay type: cell-based; settings: 72 hours
Description: as §3, §4, §5, §6, §2, §8

[18] = test system: NF-κB; assay: NF-κB GFP assay in NFκB/Jurkat/GFP transcriptional reporter cells stimulated with TNF-α; assay type: cell-based; settings: Homo sapiens, TNF-α 5 ng/ml, 24 hours, read-out: NF-KB GFP IC50
Description: NFκB/Jurkat/GFP transcriptional reporter cell line was obtained from SBI System Biosciences. NF-κB/Jurkat/GFP™ Reporter cells (5×10^5 cells) were plated at a concentration of 1 million cells/ml into each well of a 24-well plate. TNF-α (5 ng/ml) was added. Compounds were added via serial dilutions to corresponding wells. After 24 hours, 100 μl of the cells were transferred to a well of a Costar® UV plate (96 well, No lid, w/UV Transparent Flat Bottom, Corning, N.Y., Cat #3635) and the intensity of GFP fluorescence was measured (Excitation 485+/−20, Emission 528+/−20) in a Synergy™ HT Multi-Detection Microplate Reader (BioTech, Winooski, Vt.). The intensities of GFP measured were plotted against the […].

[19] = target: T1, c-Rel protein (Homo sapiens, UniProt Q04864); assay: Electrophoretic Mobility Shift Assay (EMSA), c-Rel binding to CD28RE oligonucleotide; settings: 10 nM c-Rel protein
T1 sequence (Q04864 1-619): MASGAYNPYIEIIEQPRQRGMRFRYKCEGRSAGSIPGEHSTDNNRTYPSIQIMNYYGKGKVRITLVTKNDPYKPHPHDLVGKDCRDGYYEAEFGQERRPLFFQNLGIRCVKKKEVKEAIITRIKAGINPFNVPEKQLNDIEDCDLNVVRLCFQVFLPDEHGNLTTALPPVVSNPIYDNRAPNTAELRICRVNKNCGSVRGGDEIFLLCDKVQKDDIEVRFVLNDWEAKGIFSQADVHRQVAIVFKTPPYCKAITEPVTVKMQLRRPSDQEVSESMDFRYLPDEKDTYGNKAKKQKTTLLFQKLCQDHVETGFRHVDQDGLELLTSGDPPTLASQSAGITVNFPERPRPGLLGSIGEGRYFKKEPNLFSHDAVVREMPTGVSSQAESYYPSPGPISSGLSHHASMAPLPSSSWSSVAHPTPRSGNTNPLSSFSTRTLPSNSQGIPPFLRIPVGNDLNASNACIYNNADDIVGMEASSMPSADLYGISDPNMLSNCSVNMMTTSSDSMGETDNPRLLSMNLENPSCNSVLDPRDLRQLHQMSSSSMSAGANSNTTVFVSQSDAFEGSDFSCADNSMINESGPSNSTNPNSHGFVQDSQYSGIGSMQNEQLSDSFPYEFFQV
Description: DNA binding reaction (20 μL) was carried out in 1×DNA Binding Buffer (10 mM Tris, 40 mM NaCl, 1 mM EDTA, 4% glycerol) with 10 nM c-Rel protein and 0.5 ng phosphor-labeled CD28RE oligonucleotide for 10 minutes at room temperature in 96-well plates. Test compounds, in serial dilutions, were added into each well, and further incubated for 15 minutes before loading onto native 5% polyacrylamide gel. Electrophoresis proceeded for 2.5 hours at 160V. Radioactive signals were quantified using Phospho-Imager. IC50 of compounds of example 1 to 75 were determined by quantifying the intensity of Rel/NF-κB inhibition in EMSA using phospho-imager. An example of EMSA data of the present invention is shown for compound 6 in FIG. 2.

[20] = test system: AGS; assay: CellTiter-Glo IG50, Example 8, AGS; assay type: cell-based; settings: Homo sapiens, 72 hours
Description: as §1, §2, §3, §4, §5, §6

[21] = test system: HCT116; assay: CellTiter-Glo IG50, Example 8, HCT116; assay type: cell-based; settings: Homo sapiens, HCT-116, HCT116, 72 hours
Description: as §1, §2, §3, §4, §5, §6

[22] = test system: LoVo; assay: CellTiter-Glo IG50, Example 8, LoVo; assay type: cell-based; settings: Homo sapiens, 72 hours
Description: as §1, §2, §3, §4, §5, §6

[23] = test system: Capan-1; assay: CellTiter-Glo IG50, Example 8, Capan-1; assay type: cell-based; settings: Homo sapiens, Capan-1, 72 hours
Description: as §1, §2, §3, §4, §5, §6

[24] = test system: T47D; assay: CellTiter-Glo IG50, Example 8, T47D; assay type: cell-based; settings: Homo sapiens, 72 hours
Description: as §1, §2, §3, §4, §5, §6

[25] = test system: MCF-7; assay: CellTiter-Glo IG50, Example 8, MCF-7; assay type: cell-based; settings: Homo sapiens, MCF7, MCF-7, 72 hours
Description: as §1, §2, §3, §4, §5, §6

[26] = test system: MKN45; assay: CellTiter-Glo IG50, Example 8, MKN45; assay type: cell-based; settings: Homo sapiens, MKN-45, MKN45, 72 hours
Description: as §1, §2, §3, §4, §5, §6

[27] = test system: MIAPACA-2; assay: CellTiter-Glo IG50, Example 8, MIAPACA-2; assay type: cell-based; settings: Homo sapiens, MIA PaCa-2, MIAPACA-2, 72 hours
Description: as §1, §2, §3, §4, §5, §6

[28] = test system: HT-29; assay: CellTiter-Glo IG50, Example 8, HT-29; assay type: cell-based; settings: Homo sapiens, HT-29, 72 hours
Description: as §1, §2, §3, §4, §5, §6

[29] = test system: PANC-1; assay: CellTiter-Glo IG50, Example 8, PANC-1; assay type: cell-based; settings: Homo sapiens, PANC-1, 72 hours
Description: as §1, §2, §3, §4, §5, §6

[30] = test system: KATO III; assay: CellTiter-Glo IG50, Example 8, KATO III; assay type: cell-based; settings: Homo sapiens, 72 hours
Description: as §1, §2, §3, §4, §5, §6

[31] = test system: MDA-MB-231; assay: CellTiter-Glo IG50, Example 8, MDA-MB-231; assay type: cell-based; settings: Homo sapiens, MDA-MB-231, 72 hours
Description: as §1, §2, §3, §4, §5, §6

- pIC50 [2]: 5.29
- pIC50 [3]: 4.97
- pIC50 [4]: 5.13
- pIC50 [5]: 5.29
- pIC50 [6]: 5.49
- pIC50 [7]: 5.36
- pIC50 [8]: 4.97
- pIC50 [9]: 5.18
- pIC50 [11]: 5.19
- pIC50 [12]: 5.12
- pIC50 [13]: 5.15
- pIC50 [14]: 4.99
- pIC50 [15]: 5.50
- pIC50 [16]: 4.90
Structure (SMILES): CNC(=O)c1cc(Oc2ccc(NC(=O)Nc3ccc(Cl)c(C(F)(F)F)c3)cc2)ccn1 [Sorafenib, sorafenib, reference compound]
- pIC50 [1]: 4.97
- pIC50 [10]: 4.71
- pIC50 [17]: 4.84

- pIC50 [18]: 5.09
- pIC50 [19]: > 6.00
Structure (SMILES): COc1cc(OC)c2cc3c(=O)[nH]c(=O)nc-3oc2c1 [compound 14, 6,8-dimethoxy-2H-chromeno[2,3-d]pyrimidine-2,4(3H)-dione]

- pIC50 [20]: 5.35
- pIC50 [2]: 5.40
- pIC50 [21]: 5.03
- pIC50 [3]: < 4.80
- pIC50 [22]: 5.54
- pIC50 [4]: 5.85
- pIC50 [24]: 5.30
- pIC50 [6]: 4.88
- pIC50 [9]: 5.29
- pIC50 [25]: 5.17
- pIC50 [12]: 5.44
- pIC50 [26]: < 4.80
- pIC50 [27]: 4.99
- pIC50 [28]: 5.18
- pIC50 [29]: 5.26
- pIC50 [15]: 5.34
- pIC50 [16]: < 4.80
- pIC50 [31]: 5.57
Structure (SMILES): CCCCCOc1ccc2cc3c(=O)[nH]c(=O)nc-3oc2c1Cl [IT-843]
- pIC50 [1]: < 4.80
- pIC50 [23]: < 4.80
- pIC50 [10]: 5.96
- pIC50 [30]: < 4.80
